Square brackets hold non-standard residues; d marks the D form. Peptide text beside a SMILES is read from it. * marks the point of attachment. Tyr(3-Cl) = N[C@@H](Cc1ccc(O)c(Cl)c1)C(=O)O; Benzoyl(3,5-Cl2) = O=C(c1cc(Cl)cc(Cl)c1)*; Lys(Et2) = CCN(CC)CCCC[C@H](N)C(=O)O; Gly(cPent) = N[C@H](C(=O)O)C1CCCC1; NH(propargyl) = C#CCN*
What was measured:
CBX2 ChD = target: T1, CBX2 ChD (Homo sapiens, UniProt Q14781); experiment: Direct fluorescence polarization (FP) binding assay
T1 construct: CBX chromodomain constructs; host or cells: E. coli BL21 CodonPlus RIL
T1 sequence (Q14781 12-70 limits assumed): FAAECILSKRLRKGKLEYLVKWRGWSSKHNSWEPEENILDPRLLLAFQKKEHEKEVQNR

[1] = test system: RWPE-1 cells, HEK293T cells; experiment: Viability of non-transformed / control cells; assay type: cell-based
[2] = target: T2, CBX2 bulk chromatin binding (Homo sapiens, UniProt Q14781); experiment: Sequential salt extraction (SSE) in HEK293T cells; assay type: cell-based; details: 10 μM
T2 construct: endogenous in cells; host or cells: HEK293T (A21); K562 (A22)
T2 sequence (Q14781 whole entry): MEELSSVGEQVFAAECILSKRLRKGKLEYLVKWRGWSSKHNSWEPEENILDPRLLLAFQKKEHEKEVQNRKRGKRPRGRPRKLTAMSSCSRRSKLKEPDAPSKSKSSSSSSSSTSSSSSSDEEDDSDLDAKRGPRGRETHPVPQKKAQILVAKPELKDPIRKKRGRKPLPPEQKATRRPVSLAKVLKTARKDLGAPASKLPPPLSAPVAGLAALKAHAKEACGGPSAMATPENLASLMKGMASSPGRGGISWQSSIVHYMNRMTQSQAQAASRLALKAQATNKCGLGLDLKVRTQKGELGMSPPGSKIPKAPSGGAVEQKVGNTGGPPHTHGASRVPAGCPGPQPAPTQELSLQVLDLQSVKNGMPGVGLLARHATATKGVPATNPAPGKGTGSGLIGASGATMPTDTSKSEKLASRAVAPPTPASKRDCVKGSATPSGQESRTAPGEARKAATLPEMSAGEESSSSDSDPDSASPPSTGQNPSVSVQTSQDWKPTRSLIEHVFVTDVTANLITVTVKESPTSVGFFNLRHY

[3] = test system: H3K27me3, AR, ENO2, N-Myc, CBX2 protein levels; experiment: Western blotting of protein expression in VCaP_NED cells; assay type: cell-based
Source text: (§1) FIG. 12A). Neuroendocrine differentiation (NED) of prostate cancer induced by androgen deprivation. Representative pictures of LNCaP cells treated with normal media or charcoal-stripped serum (CSS) media for 6 days to induce neuroendocrine differentiation (LNCaP_NED). FIG. 12B). Transcriptional fold changes of KLK3/TMPRSS2/ENO2/CHGA were quantified normalized to control gene YWHAZ upon CSS media treatment for 6 or 9 days. FIG. 12C). Western blotting of CBX paralogs in LNCaP and LNCaP_NED cells generated from 14-day CSS treatment. FIG. 12D). Cell proliferation of LNCaP_NED following 5 days incubation with 2 or 10 μM SW2_152F. DMSO was used as negative control. FIG. 12E). LNCaP_NED cells were treated with 10 μM SW2_152F for 24 h-96 h. Cell morphology pictures were captured starting from 24 h. Average cell size were plotted at 24 h or 48 h for both DMSO group and compound treated group. FIG. 12F). LNCaP_NED cells were treated with 10 μM or 50 μM SW2_152F for 48 hours. Transcriptional fold change of genes (KLK3/TMPRSS2/AR/CBX2) were normalized to YWHAZ in LNCaP_NED cells with SW2_152F treatment or DMSO. FIG. 12G). LNCaP cells were treated with DMSO. LNCaP_NED cells were treated with DMSO, 10 μM GSK343 or 10 μM SW2_152F for 48 hours. Whole cell lysates were extracted for western blotting. FIG. 12H). LNCaP_NED cells were treated with DMSO or 10 μM SW2_152F for 4 hours before harvest. Binding of H3K27me3 and CBX2 at specific genomic sites (KLK3/TMPRSS2, e: enhancer, p: promoter) were evaluated using chromatin immunoprecipitation-qPCR. For all experiments in the figure, error bars represent SEM n=3 biological replicates, p-values were calculated using two-tailed Student's t-test, *=p<0.05, **=p<0.01, ***=p<0.001, ****=p<0.0001.
In another androgen-sensitive prostate cancer cell line, VCaP, 6 days of androgen deprivation decreases AR protein expression and increases ENO2, N-Myc, H3K27me3 and CBX2 protein expression (FIG. 12G), similar to published findings (Y. Zhang, et al., 2018). Using this NED cell line (VCaP_NED), we tested how addition of EZH2 inhibitor GSK343 or CBX2 inhibitor SW2_152F affects protein expression changes during NED.

[4] = target: T3, CBX7 bulk chromatin binding (Homo sapiens, UniProt O95931); experiment: Sequential salt extraction (SSE) in HEK293T cells; assay type: cell-based; details: 10 μM
T3 construct: endogenous in cells; host or cells: Hs68 fibroblasts (A17); HEK293T (A20)
T3 sequence (O95931 whole entry): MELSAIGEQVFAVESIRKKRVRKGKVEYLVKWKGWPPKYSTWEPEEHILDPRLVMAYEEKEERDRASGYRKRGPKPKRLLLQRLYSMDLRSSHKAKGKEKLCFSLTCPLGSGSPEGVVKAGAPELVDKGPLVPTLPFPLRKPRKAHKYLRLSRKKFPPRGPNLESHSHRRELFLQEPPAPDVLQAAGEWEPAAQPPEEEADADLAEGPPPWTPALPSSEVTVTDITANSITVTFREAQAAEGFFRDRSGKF

[5] = target: T4, CBX2 and H3K27me3 at KLK3/TMPRSS2 enhancers and promoters (Homo sapiens, UniProt Q14781); experiment: ChIP-qPCR in LNCaP_NED cells; assay type: cell-based; details: 10 μM, 4 hours
T4 construct: endogenous in cells
T4 sequence (Q14781 whole entry): as the sequence (Q14781 whole entry) above
Source text: as §1, with “Transcriptional fold change of genes (KLK3/TMPRSS2/AR/CBX2) were normalized to YWHAZ in LNCaP_NED cells with SW2_152F treatment or DMSO. FIG. 12G). LNCaP cells were treated with DMSO. LNCaP_NED cells were treated with DMSO, 10 μM GSK343 or 10 μM SW2_152F for 48 hours. Whole cell lysates were extracted for western blotting. FIG. 12H). LNCaP_NED cells were treated with DMSO or 10 μM SW2_152F for 4 hours before harvest.” left out, “****=p<0.0001. […]” for “****=p<0.0001.”

selectivity for CBX2 over the other paralogs (CBX2 ChD; calculated from Kd values): at least 24 fold | Kd (CBX2 ChD; read-out: Kd to CBX2): ~0.08 µM | CBX7 binding to chromatin, SSE [4]: No effect
Compound: C#CCNC(=O)[C@H](CO)NC(=O)[C@H](CCCCN(CC)CC)NC(=O)[C@@H](NC(=O)[C@@H](NC(=O)[C@H](Cc1ccc(O)c(Cl)c1)NC(=O)c1cc(Cl)cc(Cl)c1)C1CCCC1)[C@@H](C)CC [SW2_152F] ({Benzoyl(3,5-Cl2)}-[Tyr(3-Cl)][Gly(cPent)]I[Lys(Et2)]S-{NH(propargyl)})
viability of RWPE-1 cells or HEK293T cells [1]: did not affect the viability | CBX2 binding to chromatin, SSE [2]: dramatically abrogated CBX2 binding to chromatin | H3K27me3 levels ([3]; 10 μM, 48 hours): does not | AR, ENO2 and N-Myc expression ([3]; compared to DMSO): increase AR and decrease ENO2 and N-Myc expression | CBX2 binding at AR target genes, ChIP-qPCR [5]: abrogates CBX2 binding at the KLK3 (PSA)/TMPRSS2 enhancers and promoters | H3K27me3 enrichment at AR target genes, ChIP-qPCR [5]: reduces H3K27me3 enrichment specifically at these sites

— US20210284691A1, “CBX8 CHROMDOMAIN INHIBITORS AND THE USES THEREOF” (Purdue Research Foundation, priority 2019, published 2021)
